In US6677350B1, “Beta-fluoroethyl thiourea compounds and use” (priority 1999, dated 2004):
Where two headings read alike, the source gives them in different places.

Tested on: M. tuberculosis H37Rv (ATCC 27294)
Assay: In vitro anti-tuberculosis screening, BACTEC 460 radiometric system, percent inhibition of growth
Format: cell-based, Mycobacterium tuberculosis
Settings: Mtb H37Rv; for inhibition at 12.5 µg/mL: Mycobacterium tuberculosis
[1] = 12.5 μg/mL, BACTEC 12B medium, read-out: Activity % Inhibition at 12.5 μg/mL (flavones)

SMILES | Activity % Inhibition at 12.5 μg/mL (flavones) (12.5 μg/mL, BACTEC 12B medium) [%] | other results
O=C(/C=C/c1ccncc1)c1ccco1 [Compound 75] | – | Activity % inhibition at 12.5 μg/mL (chalcone-like compounds) (12.5 μg/mL, BACTEC 12B medium): 0%
COc1ccc(/C=C/C(=O)c2ccccn2)cc1 [Compound 76] | – | Activity % inhibition at 12.5 μg/mL (chalcone-like compounds) (12.5 μg/mL, BACTEC 12B medium): 0%
O=c1cc(-c2ccccc2)oc2c(Br)cccc12 [Compound 77] | 66 | –
O=c1c(O)c(-c2ccccc2)oc2ccc(I)cc12 [Compound 79] | 64 | –
O=c1c(O)c(-c2cccc(Br)c2)oc2ccccc12 [Compound 80] | 60 | –
O=c1c(O)c(-c2ccccc2)oc2cc(Cl)ccc12 [Compound 81] | 58 | –
O=c1c(O)c(-c2ccccc2)oc2ccc(Br)cc12 [Compound 82] | 58 | –
O=c1cc(-c2ccc(I)cc2)oc2ccccc12 [Compound 84] | 51 | anti-TB activity in words (12.5 μg/mL): weakly active or inactive; inhibition of the growth of Mtb (drug concentration 12.5 μg/mL): 51%
COc1ccc(-c2oc3cc(F)ccc3c(=O)c2O)cc1 [Compound 85] | 50 | anti-TB activity in words (12.5 μg/mL): did not change the activity
COc1ccc(-c2oc3cc(F)ccc3c(=O)c2OC(C)=O)cc1 [Compound 86] | 50 | –
COc1ccc(-c2oc3ccc(Cl)cc3c(=O)c2O)cc1 [Compound 87] | 48 | anti-TB activity in words (12.5 μg/mL): did not change the activity
COc1ccc(-c2oc3ccccc3c(=O)c2O)cc1 [Compound 88, 4′-methoxyflavonol] | – | increase in activity compared to 92 (12.5 μg/mL): 10%; inhibition at 12.5 µg/mL [1]: 48%
COc1c(-c2ccccc2)oc2ccc(Br)cc2c1=O [Compound 89] | 44 | –
O=c1c(O)c(-c2ccccc2)oc2c(F)cccc12 [Compound 90] | 43 | –
COc1ccc(-c2oc3cc(I)ccc3c(=O)c2O)cc1 [Compound 91] | 43 | –
O=c1c(O)c(-c2ccccc2)oc2ccccc12 [Compound 92, 3-hydroxyflavone] | – | inhibition at 12.5 µg/mL [1]: 38%; inhibition at 12.5 µg/mL (drug concentration 12.5 μg/mL, read-out: inhibition of the growth of Mtb): 38%
COc1ccc(-c2cc(=O)c3ccccc3o2)cc1 [Compound 93] | 29 | –
COc1ccc(-c2oc3ccc(F)cc3c(=O)c2O)cc1 [Compound 94] | 29 | –
O=c1cc(-c2ccc(Cl)c([N+](=O)[O-])c2)oc2ccccc12 [Compound 95] | 28 | –
COc1ccc(-c2oc3ccccc3c(=O)c2Br)cc1 [Compound 96] | 28 | –
O=c1cc(-c2ccc(Br)cc2)oc2ccccc12 [Compound 97] | 26 | anti-TB activity in words (12.5 μg/mL): weakly active or inactive; inhibition of the growth of Mtb (drug concentration 12.5 μg/mL): 26%
O=c1cc(-c2ccccc2I)oc2ccccc12 [Compound 100] | 22 | anti-TB activity in words (12.5 μg/mL): weakly active or inactive; inhibition of the growth of Mtb (drug concentration 12.5 μg/mL): 22%
O=c1cc(-c2cccc(I)c2)oc2ccccc12 [Compound 101] | 22 | anti-TB activity in words (12.5 μg/mL): weakly active or inactive
O=c1cc(-c2ccccc2)oc2cc(I)ccc12 [Compound 102] | 20 | anti-TB activity in words (12.5 μg/mL): weakly active or inactive
COc1ccc2c(=O)c(Br)c(-c3ccc(Cl)cc3)oc2c1 [Compound 103] | 19 | –
O=c1cc(-c2ccc(O)cc2)oc2ccccc12 [Compound 104] | 18 | –

SMILES | Activity % Inhibition at 12.5 μg/mL (flavones) (12.5 μg/mL, BACTEC 12B medium) [%] | other results
O=c1cc(-c2ccccc2)oc2cc(Br)ccc12 [Compound 106] | 15 | anti-TB activity in words (12.5 μg/mL): weakly active or inactive
COc1ccc(-c2cc(=O)c3cc(I)ccc3o2)cc1 [Compound 107] | 15 | –
O=c1c(Br)c(-c2ccccc2)oc2ccccc12 [Compound 108] | 13 | –
COc1ccc(-c2cc(=O)c3c(OC)cc(OC)cc3o2)cc1 [Compound 109] | 12 | –
O=C(c1ccccc1)c1ccc2c(=O)c(C(=O)c3ccccc3)c(-c3ccccc3)oc2c1 [Compound 110] | 12 | –
O=c1cc(-c2ccccc2)oc2ccc(F)cc12 [Compound 112] | 7 | anti-TB activity in words (12.5 μg/mL): weakly active or inactive
COc1ccc(-c2oc3c(I)cccc3c(=O)c2O)cc1 [Compound 113] | 6 | –
O=c1cc(-c2ccccc2)oc2c(I)cccc12 [Compound 114] | 5 | anti-TB activity in words (12.5 μg/mL): weakly active or inactive
COc1ccc(-c2cc(=O)c3cc(C(=O)O)ccc3o2)cc1 [Compound 115] | 2 | –
O=c1cc(-c2ccccc2O)oc2ccccc12 [Compound 116] | 1 | –
COc1ccc2c(=O)cc(-c3ccccc3)oc2c1 [Compound 117] | 0 | –
COc1ccc(-c2cc(=O)c3ccc(F)cc3o2)cc1 [Compound 118] | 0 | –
COc1ccc(-c2cc(=O)c3ccc(OC)cc3o2)cc1 [Compound 119] | 0 | –
O=c1cc(-c2cccc(Cl)c2)oc2ccccc12 [Compound 121] | 0 | anti-TB activity in words (12.5 μg/mL): weakly active or inactive; inhibition of the growth of Mtb (drug concentration 12.5 μg/mL): 0%
O=c1cc(-c2ccccc2)oc2cc(Cl)ccc12 [Compound 122] | 0 | anti-TB activity in words (12.5 μg/mL): weakly active or inactive
O=c1cc(-c2ccccc2)oc2ccc(Br)cc12 [Compound 123] | 0 | anti-TB activity in words (12.5 μg/mL): weakly active or inactive
O=c1cc(-c2ccccc2)oc2ccc(I)cc12 [Compound 124] | 0 | anti-TB activity in words (12.5 μg/mL): weakly active or inactive
COc1ccc(-c2cc(=O)c3c(OC)cc(OC)c(I)c3o2)cc1 [Compound 125] | 0 | –
COc1cc(OC)c2c(=O)cc(-c3ccc(OC)c(I)c3)oc2c1 [Compound 126] | 0 | –
O=c1c(I)c(-c2ccccc2)oc2ccccc12 [Compound 127] | 0 | anti-TB activity in words (12.5 μg/mL): weakly active or inactive
COc1ccc(-c2cc(=O)c3ccc(I)cc3o2)cc1 [Compound 128] | 0 | –
COc1ccc(-c2oc3ccc(C(=O)O)cc3c(=O)c2O)cc1 [Compound 130] | 0 | –
COc1ccc(-c2oc3cc(OC)cc(OC)c3c(=O)c2Br)cc1 [Compound 131] | 0 | –
COc1cc(OC)c2c(=O)cc(-c3ccc(O)cc3)oc2c1 [Compound 132] | 0 | –
O=C1CC(c2cccc(Br)c2)Oc2ccccc21 (centres unmarked) [Compound 134] | – | Activity % Inhibition at 12.5 μg/mL (flavanones) (12.5 μg/mL, BACTEC 12B medium): 73%; inhibition of the growth of Mtb (drug concentration 12.5 μg/mL): 73%
O=C1c2ccccc2OC(c2cccc(Cl)c2)C1O (centres unmarked) [Compound 135] | – | Activity % Inhibition at 12.5 μg/mL (flavanones) (12.5 μg/mL, BACTEC 12B medium): 63%
